Results: ChEMBL document CHEMBL1141367, “Substituted 2-[(4-aminomethyl)phenoxy]-2-methylpropionic acid PPARalpha agonists. 1. Discovery of a novel series of potent HDLc raising agents” (J Med Chem, 2007)

Key:
Mus musculus [1] = experiment: Increase in HDL cholesterol level in human Apo-A-I transgenic C57BL/6 mouse at 5 mg/kg, po; format: functional
[2] = Bioavailability in Wistar rat at 3 mg/kg, po; format: ADME, organism-based; settings: in vivo
[3] = Volume of distribution in Wistar rat at 2.7 mg/kg, iv; format: ADME, organism-based; set-up: dose 2.7 mg/kg, route intravenous; settings: in vivo, read-out: Vdss
Mus musculus [4] = experiment: Decrease in plasma TG level in human Apo-A-I transgenic C57BL/6 mouse at 0.5 mg/kg, po; format: functional; set-up: scale not given: the % may be the effect or the level left
Mus musculus [5] = experiment: Decrease in VLDL cholesterol in human Apo-A-I transgenic C57BL/6 mouse at 5 mg/kg, po; format: functional; set-up: scale not given: the % may be the effect or the level left
Mus musculus [6] = experiment: Decrease in LDL cholesterol level in human Apo-A-I transgenic C57BL/6 mouse at 1 mg/kg, po; format: functional; set-up: scale not given: the % may be the effect or the level left
Mus musculus [7] = experiment: Decrease in plasma TG level in human Apo-A-I transgenic C57BL/6 mouse at 5 mg/kg, po; format: functional; set-up: scale not given: the % may be the effect or the level left
[8] = target: T1, Peroxisome proliferator-activated receptor alpha (Homo sapiens) (UniProt Q07869); experiment: Agonist potency at PPARalpha expressed in CV1 cells relative to GW-590735; format: functional, cell-based; settings: CV-1
T1 sequence (whole entry): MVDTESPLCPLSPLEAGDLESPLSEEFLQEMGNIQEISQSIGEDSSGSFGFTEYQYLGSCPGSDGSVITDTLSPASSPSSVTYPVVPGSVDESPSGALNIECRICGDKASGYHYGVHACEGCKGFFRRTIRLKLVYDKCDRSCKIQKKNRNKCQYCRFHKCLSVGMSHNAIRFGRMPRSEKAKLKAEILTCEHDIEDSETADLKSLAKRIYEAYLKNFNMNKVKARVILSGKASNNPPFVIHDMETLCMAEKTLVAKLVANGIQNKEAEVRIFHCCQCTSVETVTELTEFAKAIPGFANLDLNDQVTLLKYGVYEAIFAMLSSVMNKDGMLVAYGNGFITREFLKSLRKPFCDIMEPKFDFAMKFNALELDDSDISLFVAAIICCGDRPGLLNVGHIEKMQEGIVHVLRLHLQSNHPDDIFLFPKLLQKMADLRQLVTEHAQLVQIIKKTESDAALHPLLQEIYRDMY

[9] = target: T2, Peroxisome proliferator-activated receptor alpha (Mus musculus, UniProt P23204)
T2 sequence (P23204 whole entry): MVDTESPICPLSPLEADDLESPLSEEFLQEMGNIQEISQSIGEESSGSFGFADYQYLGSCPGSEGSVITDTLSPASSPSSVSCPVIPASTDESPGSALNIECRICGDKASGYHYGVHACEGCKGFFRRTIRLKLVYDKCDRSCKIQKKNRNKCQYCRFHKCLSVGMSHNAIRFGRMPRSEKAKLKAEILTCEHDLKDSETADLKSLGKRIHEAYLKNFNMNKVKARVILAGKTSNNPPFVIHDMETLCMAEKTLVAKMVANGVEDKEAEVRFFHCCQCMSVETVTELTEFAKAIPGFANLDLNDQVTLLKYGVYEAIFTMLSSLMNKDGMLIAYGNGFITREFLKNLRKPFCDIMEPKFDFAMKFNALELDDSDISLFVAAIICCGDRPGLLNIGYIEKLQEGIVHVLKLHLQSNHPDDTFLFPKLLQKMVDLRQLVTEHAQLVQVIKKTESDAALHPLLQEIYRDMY
Description: Agonist potency at mouse PPARalpha

[10] = target: T3, Peroxisome proliferator-activated receptor gamma (Homo sapiens, UniProt P37231); format: functional, cell-based, CV-1
T3 sequence (P37231 whole entry): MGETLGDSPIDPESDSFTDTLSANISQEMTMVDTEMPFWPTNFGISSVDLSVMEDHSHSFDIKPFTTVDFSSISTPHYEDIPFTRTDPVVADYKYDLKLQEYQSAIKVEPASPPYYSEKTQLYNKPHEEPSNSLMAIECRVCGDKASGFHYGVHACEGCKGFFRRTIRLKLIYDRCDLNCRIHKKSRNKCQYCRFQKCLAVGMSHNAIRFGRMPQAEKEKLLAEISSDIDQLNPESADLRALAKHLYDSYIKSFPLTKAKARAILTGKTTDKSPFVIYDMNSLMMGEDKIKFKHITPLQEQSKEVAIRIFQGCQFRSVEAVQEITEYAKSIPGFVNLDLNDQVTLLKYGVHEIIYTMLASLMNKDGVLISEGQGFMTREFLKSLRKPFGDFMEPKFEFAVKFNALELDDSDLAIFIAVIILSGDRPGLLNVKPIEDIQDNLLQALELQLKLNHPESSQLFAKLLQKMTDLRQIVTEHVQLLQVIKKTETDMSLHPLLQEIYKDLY
Description: Agonist potency at PPARgamma in CV1 cells by cell based transient transfection assay

[11] = target: T4, Peroxisome proliferator-activated receptor gamma (Mus musculus, UniProt P37238)
T4 sequence (P37238 whole entry): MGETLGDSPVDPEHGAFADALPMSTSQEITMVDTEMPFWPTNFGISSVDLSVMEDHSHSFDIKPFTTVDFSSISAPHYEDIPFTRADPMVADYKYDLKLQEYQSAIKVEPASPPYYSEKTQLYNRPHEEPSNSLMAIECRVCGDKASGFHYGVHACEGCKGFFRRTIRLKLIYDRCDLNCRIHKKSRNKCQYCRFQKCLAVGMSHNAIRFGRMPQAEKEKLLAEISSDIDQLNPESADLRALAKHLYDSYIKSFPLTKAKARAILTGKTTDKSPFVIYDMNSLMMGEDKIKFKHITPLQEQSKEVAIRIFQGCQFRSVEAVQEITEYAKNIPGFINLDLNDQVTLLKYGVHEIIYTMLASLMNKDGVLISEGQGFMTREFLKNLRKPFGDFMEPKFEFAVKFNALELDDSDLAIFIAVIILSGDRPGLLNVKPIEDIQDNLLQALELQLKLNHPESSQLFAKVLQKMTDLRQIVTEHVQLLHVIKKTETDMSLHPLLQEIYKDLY
Description: Agonist potency at mouse PPARgamma

Mus musculus [12] = experiment: Increase in HDL cholesterol level in human Apo-A-I transgenic C57BL/6 mouse at 0.5 mg/kg, po; format: functional
[13] = Half life in Beagle dog plasma at 2 mg/kg, iv; format: ADME, organism-based, Canis lupus familiaris; set-up: dose 2 mg/kg, route intravenous
[14] = Plasma concentration in Wistar rat at 3 mg/kg, po after 1.5 hrs; format: ADME, organism-based; set-up: dose 3 mg/kg, route oral
Mus musculus [15] = experiment: Increase in HDL cholesterol level in human Apo-A-I transgenic C57BL/6 mouse at 1 mg/kg, po; format: functional

Cc1nc(-c2ccc(C(F)(F)F)cc2)sc1C(=O)NCc1ccc(OC(C)(C)C(=O)O)cc1 [GW590735]
Activity (Mus musculus [1]): 86%
bioavailability [2]: 47%
Vd [3]: 1 L/kg
Activity (Mus musculus [4]): 37%
Activity (Mus musculus [5]): 86%
Activity (Mus musculus [6]): 65%
Activity (Mus musculus [7]): 65%
Activity [8]: 95%
EC50 [9]: 0.015 µM
EC50 [10]: > 10 µM
EC50 [11]: > 10 µM
Activity (Mus musculus [12]): 43%
half-life [13]: 2.6 h
concentration at 1.5 h [14]: 1460 ng/mL
Activity (Mus musculus [15]): 51%
